Laboratory results published in article PMC3398407 (The Journal of Neuroscience, 2012).
Several values for one entry are separate records, joined by “and”; a condition that tells them apart may be missing. Equal entries are not always repeated. Where two headings read alike, the source gives them in different places.

Assays:
[1] = tested on: Schaffer collateral-CA1 synapse; experiment: Muscarinic long-term depression; conditions: 10 minutes, rat hippocampal slices
[2] = tested on: mPFC layer V pyramidal neurons; experiment: Whole-cell voltage clamp recordings of sEPSCs in mPFC layer V pyramidal neurons; set-up: species or system mice; conditions: mouse mPFC slices; for effect on sEPSC frequency / interevent interval (IEI): 100 μM
[3] = tested on: striatal medium spiny neurons (MSNs); set-up: species or system rats
[4] = molecular target: T1, human M1 mAChR (Homo sapiens, UniProt P11229); experiment: Confocal imaging of β-arrestin2-YFP recruitment in hM1 TREx CHO cells; format: cell-based; conditions: agonist 100 μM
T1 sequence (P11229 1-460): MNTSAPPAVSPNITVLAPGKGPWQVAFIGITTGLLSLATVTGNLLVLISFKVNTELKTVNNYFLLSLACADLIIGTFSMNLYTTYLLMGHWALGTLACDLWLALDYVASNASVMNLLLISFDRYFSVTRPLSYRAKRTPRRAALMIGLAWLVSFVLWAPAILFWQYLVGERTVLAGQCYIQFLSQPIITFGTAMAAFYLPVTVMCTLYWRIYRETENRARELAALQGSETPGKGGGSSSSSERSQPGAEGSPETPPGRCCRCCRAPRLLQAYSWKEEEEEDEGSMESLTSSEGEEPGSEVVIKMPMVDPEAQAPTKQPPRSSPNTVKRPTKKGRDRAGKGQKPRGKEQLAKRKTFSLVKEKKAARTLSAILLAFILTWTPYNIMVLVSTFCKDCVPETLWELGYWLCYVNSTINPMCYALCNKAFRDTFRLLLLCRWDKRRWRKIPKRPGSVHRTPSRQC

[5] = molecular target: T2, hM1 receptors (Homo sapiens, UniProt P11229); experiment: β-arrestin recruitment, PathHunter Express hM1 CHO cells; format: cell-based
T2 sequence (P11229 1-460): T1 sequence (P11229 1-460)

[6] = molecular target: β3-adrenergic receptors (Homo sapiens, UniProt P13945); experiment: GPCRProfiler calcium assay, β3; format: cell-based; conditions: 10 μM compound
β3-adrenergic receptors, sequence (P13945 whole entry): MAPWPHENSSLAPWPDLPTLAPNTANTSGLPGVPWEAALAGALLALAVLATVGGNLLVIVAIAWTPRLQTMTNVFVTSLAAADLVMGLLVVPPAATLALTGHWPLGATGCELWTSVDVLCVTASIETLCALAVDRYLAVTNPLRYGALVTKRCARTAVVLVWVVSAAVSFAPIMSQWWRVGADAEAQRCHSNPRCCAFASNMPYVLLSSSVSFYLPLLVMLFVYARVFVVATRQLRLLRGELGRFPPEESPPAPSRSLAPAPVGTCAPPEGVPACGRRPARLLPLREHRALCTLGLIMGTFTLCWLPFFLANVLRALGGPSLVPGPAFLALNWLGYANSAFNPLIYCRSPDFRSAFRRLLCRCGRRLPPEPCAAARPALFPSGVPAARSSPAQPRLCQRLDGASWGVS

[7] = tested on: Sprague-Dawley rats; experiment: Acquisition of contextual fear conditioning; format: in vivo, rat; conditions: vs vehicle
[8] = molecular target: T3, D4 dopamine receptors (Homo sapiens, UniProt P21917); experiment: GPCRProfiler calcium assay, D4; format: cell-based; conditions: 10 μM compound
T3 sequence (P21917 1-419): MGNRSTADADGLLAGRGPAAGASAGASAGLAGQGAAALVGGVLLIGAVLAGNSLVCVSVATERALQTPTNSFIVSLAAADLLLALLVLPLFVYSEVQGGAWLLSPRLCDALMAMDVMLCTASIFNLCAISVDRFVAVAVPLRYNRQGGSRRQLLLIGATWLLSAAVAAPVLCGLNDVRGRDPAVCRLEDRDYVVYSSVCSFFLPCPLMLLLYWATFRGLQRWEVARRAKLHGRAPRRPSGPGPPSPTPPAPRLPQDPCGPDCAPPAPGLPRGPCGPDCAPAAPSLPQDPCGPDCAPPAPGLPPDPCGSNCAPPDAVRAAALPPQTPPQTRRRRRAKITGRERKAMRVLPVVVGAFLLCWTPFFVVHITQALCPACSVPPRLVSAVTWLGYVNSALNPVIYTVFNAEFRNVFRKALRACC

[9] = tested on: 168 G protein coupled receptors (GPCRs); experiment: GPCRProfiler calcium assay, agonist mode, other GPCRs; format: cell-based; conditions: 10 μM compound
[10] = molecular target: T1, human M1 mAChR; experiment: ERK1/2 phosphorylation in TET-inducible hM1 TREx CHO cells; format: cell-based
[11] = molecular target: T4, human M1 receptors (Homo sapiens, UniProt P11229); experiment: ERK1/2 phosphorylation; format: cell-based; conditions: hM1 CHO cells, 5 min agonist; for EC50: read-out: ERK EC50
T4 sequence (P11229 1-460): T1 sequence (P11229 1-460)

[12] = tested on: Sprague-Dawley rats; experiment: Morris water maze; format: in vivo, rat
[13] = tested on: Schaffer collateral-CA1 synapse in rat hippocampus; conditions: 500 nM bath applied 10 minutes prior to threshold TBS; rat hippocampal slices
[14] = tested on: rats; experiment: Amphetamine-induced hyperlocomotion; format: in vivo, rat; conditions: 3–56.6 mg/kg i.p. 30 minutes prior to amphetamine
[15] = molecular target: T1, human M1 mAChR; experiment: Calcium mobilization in TET-inducible hM1 TREx CHO cells
[16] = molecular target: T4, human M1 receptors; experiment: Calcium mobilization in hM1 CHO cells; conditions: for Ca release % CCh max: Emax normalized to maximum CCh response; for EC50: read-out: Ca release EC50
[17] = molecular target: T5, M1 muscarinic receptors (Homo sapiens, UniProt P11229); experiment: GPCRProfiler calcium assay, agonist mode, M1; format: cell-based; conditions: 10 μM compound
T5 sequence (P11229 1-460): T1 sequence (P11229 1-460)

[18] = tested on: D3 receptors; conditions: ref Lebois et al., 2011; cited from earlier work
[19] = read-out: ERK EC50, TET 50 ng/mL
[20] = read-out: ERK EC50, TET 1 μg/mL
[21] = i.p., treated groups vs controls
[22] = read-out: Ca EC50, TET 10 ng/mL
[23] = read-out: Ca EC50, TET 25 ng/mL
[24] = read-out: Ca EC50, TET 50 ng/mL

Row | SMILES | induction of LTD of fEPSP slope ([1]; 30 μM) | effect on sEPSC frequency / interevent interval (IEI) [2] | β-arrestin2-YFP recruitment (confocal) ([4]; TET 50 ng/mL overnight) | β-arrestin2-YFP recruitment (confocal) ([4]; TET 1 μg/mL overnight) | effect on β-arrestin recruitment [5] | ERK % CCh max ([10]; TET 0 ng/mL) [% CCh max] | ERK % CCh max ([10]; TET 25 ng/mL) [% CCh max] | ERK % CCh max ([10]; TET 50 ng/mL) [% CCh max] | ERK % CCh max ([10]; TET 1 μg/mL) [% CCh max] | EC50 [10, 19] [µM] | EC50 [10, 20] [µM] | ERK % CCh max [11] [% CCh max] | EC50 [11] [µM] | potentiation of threshold TBS LTP (fEPSP slope) [13] | reversal of amphetamine-induced hyperlocomotion [14] | excitatory effect in MSNs (number of spikes per depolarization pulse) ([3]; 30 μM) | Ca % CCh max ([15]; TET 0 ng/mL) [% CCh max] | Ca % CCh max ([15]; TET 10 ng/mL) [% CCh max] | Ca % CCh max ([15]; TET 25 ng/mL) [% CCh max] | Ca % CCh max ([15]; TET 50 ng/mL) [% CCh max] | also measured
1 | C[N+](C)(C)CCOC(N)=O [CCh, carbachol, reference compound] | without effect | robust increase in sEPSC frequency |  |  |  |  |  |  |  |  |  |  |  |  |  |  |  |  |  |  | induction of LTD of fEPSP slope ([1]; 50 μM): induced robust LTD; concentration required for induction of the PFC response [2]: > 50 µM; excitatory effect in MSNs (number of spikes per depolarization pulse) ([3]; 10 μM): robust excitatory effect
2 | CCOC(=O)N1CCC(NCCNC(=O)c2ccccc2C)CC1.Cl [VU0357017] | did not induce a significant LTD response | no significant effect on IEI | no effect on β-arrestin recruitment | did not induce β-arrestin2 recruitment | little or no effect on β-arrestin recruitment | 27.4 | 50.3 | 45.9 | 30.3 | 35.9 | 3.17 | 37.9 | 37 | significant potentiation of fEPSP slope | fails to reverse hyperlocomotion | very weak efficacy in inducing excitatory effects | 8.24 | 7.21 | 24.5 | 60.4 | agonist Ca response at β3 [6]: very small responses; acquisition of contextual fear (duration of freezing) ([7]; 0.1, 0.3, 0.56, 1, and 3 mg/kg i.p. 30 min before conditioning): robust improvements in acquisition of contextual fear; agonist Ca response at D4 [8]: very small responses; agonist activity at other receptor subtypes [9]: little activity; overnight memory retention [12, 21]: did not differ from controls; platform crossing on the probe trial [12, 21]: did not differ from controls; swim path distance from days 4 to 5 [12, 21]: did not differ from controls; Ca % CCh max ([15]; TET 1 μg/mL): 75.3 % CCh max; EC50 [15, 22]: 16 µM; EC50 [15, 23]: 16 µM; EC50 [15, 24]: 1.6 µM; EC50 ([15]; read-out: Ca EC50, TET 1 μg/mL): 0.69 µM; Ca release % CCh max [16]: 41.7 ± 2.37 % CCh max and 41.7 % CCh max; EC50 [16]: 1.6 µM; agonist Ca response at M1 [17]: induced a significant response
3 | CCOC(=O)N1CCC(N2CCC[C@@H](NC(=O)c3ccccc3C)C2)CC1 [VU0364572] | induced robust LTD | no significant effect on IEI | no effect on β-arrestin recruitment | did induce responses | little or no effect on β-arrestin recruitment | 56.4 | 50.6 | 52.6 | 49.3 | 9.44 | 3.3 | 90.5 | 10 | significant potentiation of fEPSP slope | fails to reverse this response | relatively weak excitatory effect | 44.2 | 39.9 | 68.1 | 78.1 | concentration required to induce effects at D3 receptors [18]: greater than 10 μM; inhibition of binding at D3 receptors [18]: 10%; acquisition of contextual fear (freezing) ([7]; 0.056, 0.3, and 0.56 mg/kg i.p. 30 min before conditioning): improved acquisition of contextual fear learning; EC50 ([10]; read-out: ERK EC50, TET 0 ng/mL): 108 µM; EC50 ([10]; read-out: ERK EC50, TET 25 ng/mL): 9.88 µM; swim distance, day 5 ([12]; 0.1 mg/kg and 10 mg/kg i.p. 30 min prior to first trial, vs vehicle): decreased swim distance; overnight memory retention day 4 to day 5 ([12]; 0.1 mg/kg i.p., vs vehicle): enhanced overnight memory retention; platform crossings during first 30 seconds of probe trial ([12]; 0.1 mg/kg i.p., vs vehicle): increased platform crossings; swim distance, day 4 ([12]; 0.1 mg/kg i.p., vs vehicle): enhancement; Ca % CCh max ([15]; TET 1 μg/mL): 86.2 % CCh max; EC50 ([15]; read-out: Ca EC50, TET 0 ng/mL): 30.5 µM; EC50 [15, 22]: 146 µM; EC50 [15, 23]: 2.3 µM; EC50 [15, 24]: 1 µM; EC50 ([15]; read-out: Ca EC50, TET 1 μg/mL): 0.5 µM; Ca release % CCh max [16]: 70.8 % CCh max; EC50 [16]: 0.89 µM
